According to the supplement of paper PMC10307832:

Experiments:
Experiment in all cases: relative viability (nuclei count vs DMSO), 5 days (fraction); higher = more cells survive
[1] = compound: O=C(CCCCCCNC(=O)c1cnc(N(c2ccccc2)c2ccccc2)nc1)NO [Ricolinostat] + Nc1nc2[nH]cc(CCc3ccc(C(=O)N[C@@H](CCC(=O)O)C(=O)O)cc3)c2c(=O)[nH]1 [Pemetrexed] (partner 0.2 µM)
Method in brief: (§1)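 The day after seeding in 1536-well plates, lung cancer cell lines were treated by pin tool with a single drug, or with a fixed anchor-drug dose together with five library-drug doses (not always all listed) in √10 steps. After 5 days, a combined fix-and-stain solution (final 0.05% Triton X-100, 1% formaldehyde, 1 ug/ml Hoechst) was added. Nuclei counted on 4× images gave relative viability as treated counts over vehicle counts, reported as the median of duplicate plates.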

TGX 221 + Palbociclib = compound: CC1=CN2C(=O)C=C(N=C2C(=C1)C(C)NC3=CC=CC=C3)N4CCOCC4 [TGX 221] + CC(=O)c1c(C)c2cnc(Nc3ccc(N4CCNCC4)cn3)nc2n(C2CCCC2)c1=O [Palbociclib] (partner 0.5 µM)
Method in brief: as §1

[2] = compound: C1=CC=C(C(=C1)C2=CC=C(C=C2)C3=CSC4=C3C(=C(C(=O)N4)C#N)O)O + C[C@]1(O)C[C@@H](c2nc(-c3ccc4ccc(-c5ccccc5)nc4c3)c3c(N)nccn32)C1 [Linsitinib] (partner 1 µM)
Method in brief: as §1

[3] = compound: C1=CC=C(C(=C1)C2=CC=C(C=C2)C3=CSC4=C3C(=C(C(=O)N4)C#N)O)O + CC(C)C[C@H](NC(=O)[C@H](Cc1ccccc1)NC(=O)c1cnccn1)B(O)O [Bortezomib] (partner 0.002 µM)
Method in brief: as §1

NCI-H1755 was tested, and the relative viability ([1]; first compound 0.08 µM) was 0.405, the relative viability ([1]; first compound 0.253 µM) was 0.386 and the relative viability ([1]; first compound 0.8 µM) was 0.343. For the same cell line, the relative viability ([1]; first compound 2.53 µM) was 0.418, the relative viability (TGX 221 + Palbociclib; first compound 0.08 µM) was 0.36 and the relative viability (TGX 221 + Palbociclib; first compound 0.253 µM) was 0.422. For the same cell line, the relative viability (TGX 221 + Palbociclib; first compound 0.8 µM) was 0.385, the relative viability (TGX 221 + Palbociclib; first compound 2.53 µM) was 0.421 and the relative viability (TGX 221 + Palbociclib; first compound 8 µM) was 0.436. The relative viability ([2]; first compound 0.08 µM) was 0.934, the relative viability ([2]; first compound 0.253 µM) was 1.17 and the relative viability ([2]; first compound 0.8 µM) was 0.889. It also gave a relative viability ([2]; first compound 2.53 µM) of 1.19, a relative viability ([2]; first compound 8 µM) of 0.97 and a relative viability ([3]; first compound 0.08 µM) of 0.954. The relative viability ([3]; first compound 0.253 µM) was 1.04, the relative viability ([3]; first compound 0.8 µM) was 0.872 and the relative viability ([3]; first compound 2.53 µM) was 0.978. The relative viability ([3]; first compound 8 µM) was 0.814.

Work on NCI-H838 yielded a relative viability ([1]; first compound 0.08 µM) of 0.236, a relative viability ([1]; first compound 0.253 µM) of 0.273 and a relative viability ([1]; first compound 0.8 µM) of 0.259. For the same cell line, the relative viability ([1]; first compound 2.53 µM) was 0.208, the relative viability (TGX 221 + Palbociclib; first compound 0.08 µM) was 0.213 and the relative viability (TGX 221 + Palbociclib; first compound 0.253 µM) was 0.187. For the same cell line, the relative viability (TGX 221 + Palbociclib; first compound 0.8 µM) was 0.19, the relative viability (TGX 221 + Palbociclib; first compound 2.53 µM) was 0.188 and the relative viability (TGX 221 + Palbociclib; first compound 8 µM) was 0.179. For the same cell line, the relative viability ([2]; first compound 0.08 µM) was 0.738, the relative viability ([2]; first compound 0.253 µM) was 1.22 and the relative viability ([2]; first compound 0.8 µM) was 1.08. For the same cell line, the relative viability ([2]; first compound 2.53 µM) was 0.988, the relative viability ([2]; first compound 8 µM) was 1.04 and the relative viability ([3]; first compound 0.08 µM) was 0.776. It also gave a relative viability ([3]; first compound 0.253 µM) of 0.816, a relative viability ([3]; first compound 0.8 µM) of 1.03 and a relative viability ([3]; first compound 2.53 µM) of 0.715. For the same cell line, the relative viability ([3]; first compound 8 µM) was 0.634.

In the case of NCI-H322M, the relative viability ([1]; first compound 0.08 µM) is reported as 0.61, the relative viability ([1]; first compound 0.253 µM) is reported as 0.607 and the relative viability ([1]; first compound 0.8 µM) is reported as 0.639. For the same cell line, the relative viability ([1]; first compound 2.53 µM) was 0.646, the relative viability (TGX 221 + Palbociclib; first compound 0.08 µM) was 0.492 and the relative viability (TGX 221 + Palbociclib; first compound 0.253 µM) was 0.484. For the same cell line, the relative viability (TGX 221 + Palbociclib; first compound 0.8 µM) was 0.478, the relative viability (TGX 221 + Palbociclib; first compound 2.53 µM) was 0.459 and the relative viability (TGX 221 + Palbociclib; first compound 8 µM) was 0.388. For the same cell line, the relative viability ([2]; first compound 0.08 µM) was 1.07, the relative viability ([2]; first compound 0.253 µM) was 0.587 and the relative viability ([2]; first compound 0.8 µM) was 0.874. The relative viability ([2]; first compound 2.53 µM) was 0.909, the relative viability ([2]; first compound 8 µM) was 0.787 and the relative viability ([3]; first compound 0.08 µM) was 1.13. The relative viability ([3]; first compound 0.253 µM) was 1.22, the relative viability ([3]; first compound 0.8 µM) was 1.24 and the relative viability ([3]; first compound 2.53 µM) was 1.34. It also gave a relative viability ([3]; first compound 8 µM) of 1.11.

In the case of NCI-H441, the relative viability ([1]; first compound 0.08 µM) is reported as 0.267, the relative viability ([1]; first compound 0.253 µM) is reported as 0.25 and the relative viability ([1]; first compound 0.8 µM) is reported as 0.289. The relative viability ([1]; first compound 2.53 µM) was 0.272, the relative viability (TGX 221 + Palbociclib; first compound 0.08 µM) was 0.239 and the relative viability (TGX 221 + Palbociclib; first compound 0.253 µM) was 0.203. The relative viability (TGX 221 + Palbociclib; first compound 0.8 µM) was 0.217, the relative viability (TGX 221 + Palbociclib; first compound 2.53 µM) was 0.185 and the relative viability (TGX 221 + Palbociclib; first compound 8 µM) was 0.21. It also gave a relative viability ([2]; first compound 0.08 µM) of 0.583, a relative viability ([2]; first compound 0.253 µM) of 0.748 and a relative viability ([2]; first compound 0.8 µM) of 0.617. It also gave a relative viability ([2]; first compound 2.53 µM) of 0.746, a relative viability ([2]; first compound 8 µM) of 0.552 and a relative viability ([3]; first compound 0.253 µM) of 0.534. It also gave a relative viability ([3]; first compound 2.53 µM) of 0.757 and a relative viability ([3]; first compound 8 µM) of 0.441.

Work on EMC-BAC-2 yielded a relative viability ([1]; first compound 0.08 µM) of 0.44, a relative viability ([1]; first compound 0.253 µM) of 0.414 and a relative viability ([1]; first compound 0.8 µM) of 0.38. It also gave a relative viability ([1]; first compound 2.53 µM) of 0.308, a relative viability (TGX 221 + Palbociclib; first compound 0.08 µM) of 0.493 and a relative viability (TGX 221 + Palbociclib; first compound 0.253 µM) of 0.492. The relative viability (TGX 221 + Palbociclib; first compound 0.8 µM) was 0.51, the relative viability (TGX 221 + Palbociclib; first compound 2.53 µM) was 0.547 and the relative viability (TGX 221 + Palbociclib; first compound 8 µM) was 0.439. It also gave a relative viability ([2]; first compound 0.08 µM) of 0.759, a relative viability ([2]; first compound 0.253 µM) of 0.853 and a relative viability ([2]; first compound 0.8 µM) of 0.837. It also gave a relative viability ([2]; first compound 2.53 µM) of 0.811, a relative viability ([2]; first compound 8 µM) of 0.77 and a relative viability ([3]; first compound 0.08 µM) of 0.995. The relative viability ([3]; first compound 0.253 µM) was 1.25, the relative viability ([3]; first compound 0.8 µM) was 1.15 and the relative viability ([3]; first compound 2.53 µM) was 1.05. For the same cell line, the relative viability ([3]; first compound 8 µM) was 0.957.

HARA showed a relative viability ([1]; first compound 0.08 µM) of 0.254, a relative viability ([1]; first compound 0.253 µM) of 0.256 and a relative viability ([1]; first compound 0.8 µM) of 0.213. For the same cell line, the relative viability ([1]; first compound 2.53 µM) was 0.274, the relative viability (TGX 221 + Palbociclib; first compound 0.08 µM) was 0.264 and the relative viability (TGX 221 + Palbociclib; first compound 0.253 µM) was 0.28. It also gave a relative viability (TGX 221 + Palbociclib; first compound 0.8 µM) of 0.268, a relative viability (TGX 221 + Palbociclib; first compound 2.53 µM) of 0.232 and a relative viability (TGX 221 + Palbociclib; first compound 8 µM) of 0.246. The relative viability ([2]; first compound 0.253 µM) was 1.68, the relative viability ([2]; first compound 0.8 µM) was 0.998 and the relative viability ([2]; first compound 2.53 µM) was 1.07. For the same cell line, the relative viability ([2]; first compound 8 µM) was 0.774, the relative viability ([3]; first compound 0.8 µM) was 1.25 and the relative viability ([3]; first compound 2.53 µM) was 1.03. For the same cell line, the relative viability ([3]; first compound 8 µM) was 1.13.

With COR-L 105 the relative viability ([1]; first compound 0.08 µM) was 0.901, the relative viability ([1]; first compound 0.253 µM) was 1.08 and the relative viability ([1]; first compound 0.8 µM) was 1.2. The relative viability ([1]; first compound 2.53 µM) was 1.24, the relative viability (TGX 221 + Palbociclib; first compound 0.08 µM) was 0.417 and the relative viability (TGX 221 + Palbociclib; first compound 0.253 µM) was 0.4. It also gave a relative viability (TGX 221 + Palbociclib; first compound 0.8 µM) of 0.332, a relative viability (TGX 221 + Palbociclib; first compound 2.53 µM) of 0.473 and a relative viability (TGX 221 + Palbociclib; first compound 8 µM) of 0.41. For the same cell line, the relative viability ([2]; first compound 0.08 µM) was 0.964, the relative viability ([2]; first compound 0.253 µM) was 0.781 and the relative viability ([2]; first compound 0.8 µM) was 0.924. The relative viability ([2]; first compound 2.53 µM) was 0.957, the relative viability ([2]; first compound 8 µM) was 0.953 and the relative viability ([3]; first compound 0.08 µM) was 0.767. For the same cell line, the relative viability ([3]; first compound 0.253 µM) was 0.78, the relative viability ([3]; first compound 0.8 µM) was 0.819 and the relative viability ([3]; first compound 2.53 µM) was 0.779. For the same cell line, the relative viability ([3]; first compound 8 µM) was 0.58.

201T gave a relative viability ([1]; first compound 0.08 µM) of 0.339, a relative viability ([1]; first compound 0.253 µM) of 0.314 and a relative viability ([1]; first compound 0.8 µM) of 0.334. For the same cell line, the relative viability ([1]; first compound 2.53 µM) was 0.311, the relative viability (TGX 221 + Palbociclib; first compound 0.08 µM) was 0.356 and the relative viability (TGX 221 + Palbociclib; first compound 0.253 µM) was 0.348. The relative viability (TGX 221 + Palbociclib; first compound 0.8 µM) was 0.331, the relative viability (TGX 221 + Palbociclib; first compound 2.53 µM) was 0.337 and the relative viability (TGX 221 + Palbociclib; first compound 8 µM) was 0.32. The relative viability ([2]; first compound 0.08 µM) was 1.09, the relative viability ([2]; first compound 0.253 µM) was 1.06 and the relative viability ([2]; first compound 0.8 µM) was 1.03. It also gave a relative viability ([2]; first compound 2.53 µM) of 1.02, a relative viability ([2]; first compound 8 µM) of 1.1 and a relative viability ([3]; first compound 0.08 µM) of 1.09. The relative viability ([3]; first compound 0.253 µM) was 1.13, the relative viability ([3]; first compound 0.8 µM) was 1.14 and the relative viability ([3]; first compound 2.53 µM) was 1.09. The relative viability ([3]; first compound 8 µM) was 1.13.

In the case of NCI-H460, the relative viability ([1]; first compound 0.08 µM) is reported as 0.0618, the relative viability ([1]; first compound 0.253 µM) is reported as 0.0585 and the relative viability ([1]; first compound 0.8 µM) is reported as 0.0722. For the same cell line, the relative viability ([1]; first compound 2.53 µM) was 0.0727, the relative viability (TGX 221 + Palbociclib; first compound 0.08 µM) was 0.101 and the relative viability (TGX 221 + Palbociclib; first compound 0.253 µM) was 0.179. For the same cell line, the relative viability (TGX 221 + Palbociclib; first compound 0.8 µM) was 0.159, the relative viability (TGX 221 + Palbociclib; first compound 2.53 µM) was 0.228 and the relative viability (TGX 221 + Palbociclib; first compound 8 µM) was 0.168. The relative viability ([2]; first compound 0.253 µM) was 0.81, the relative viability ([2]; first compound 0.8 µM) was 0.682 and the relative viability ([2]; first compound 2.53 µM) was 1.06. The relative viability ([2]; first compound 8 µM) was 0.657, the relative viability ([3]; first compound 0.253 µM) was 0.828 and the relative viability ([3]; first compound 0.8 µM) was 1.34. For the same cell line, the relative viability ([3]; first compound 2.53 µM) was 1.41 and the relative viability ([3]; first compound 8 µM) was 0.624.
